Assay results taken from patent publication US6387889B1, “Medicinal compositions for treating eye diseases” (Yamasa Corporation, priority 1998, dated 2002).

Experiments:
[1] = system: rabbit of normal ocular tension; test: Test Example 2: effect of lowering ocular tension after instillation of test compound to rabbit of normal ocular tension; format: in vivo, Japanese white male rabbits; settings: 0.1% (W/V), 50 μL instilled; for AUC: area under curve of time vs difference in ocular tension between treated eye and eye drop base eye, up to 480 minutes; for Emax: maximum difference in ocular tension between treated eye and eye drop base eye
Description: Compounds shown in Table 1 were used as test compounds. Each compound was dissolved in saline containing polysorbate 80 (hereinafter the saline will be referred to as “eye drop base A”) or in an aqueous solution of boric acid buffer (pH 7.0) containing polysorbate 80 (hereinafter the solution will be referred to as “eye drop base B”) (polysorbate 80 content of each base: 5 mg/mL), to thereby obtain a test solution. The amount of each compound in the resultant solution was 0.1% (W/V). The eye drop bases were employed as a control.
Japanese white male rabbits (Kitayama Labes Co., Ltd.) (weight: 2.1-3.2 kg) were employed in the test. The rabbits were retained in a box-type fixation apparatus and employed in the test.
The ocular tension of each rabbit was measured by use of Model 30 Classic Pneumatonometer (product of Mentor) without anesthesia. Before the ocular tension was measured, 0.4% oxybuprocaine hydrochloride (Benoxil 0.4% eye drop solution, product of Santen Pharmaceutical Co., Ltd.) was instilled to the eyes of each rabbit, to thereby anesthetize the surface of the cornea. The ocular tension of each rabbit was measured several times at regular intervals. After the ocular tension became stable, the ocular tension was measured three times, and the average value was employed as the ocular tension.
A 0.1% solution of each test compound (50 μL) was instilled to one eye of each of the respective rabbits, and simultaneously the eye drop base (50 μL) was instilled to the remaining eye. The ocular tensions of both eyes were measured 60 minutes before instillation of the test compound; 0 minute immediately before instillation; and 30, 60, 90, 120, 150, 180, 240, 300, 360, 420, and 480 minutes after instillation. Two to six rabbits were employed for each test compound. For control, the eye drop base was instilled to both eyes of each respective rabbit, and the ocular tension was measured in a manner similar to that described above.
For each test compound, the effect of lowering ocular tension was evaluated on the basis of the following values: the area under the curve of time versus change in difference between the ocular tension of the eye to which the test compound was instilled and that of the eye to which the eye drop base was instilled (hereinafter the area will be abbreviated as AUC (mmHg·min)); and the maximum value of difference between the ocular tension of the eye to which the test compound was instilled and that of the eye to which the eye drop base was instilled (hereinafter the value will be abbreviated as Emax (mmHg)).

[2] = system: ocular tension in rabbits; test: Test Example 1: ocular tension after instillation to rabbits (FIGS. 1 and 2); format: in vivo, New Zealand white male rabbits; settings: 0.03% and 0.1% (W/V) in 15% aqueous dimethyl sulfoxide, 50 μL instilled once; 15-180 minutes after instillation; CGS-21680 0.1% (w/v)
Description: 2-(1-Octynyl)adenosine, 2-(3-hydroxy-1-propynyl)adenosine, and CGS-21680 [2-((4-(2-carboxyethyl)phenylethyl)amino)adenosine-5′-N-ethyluronamide] were used as test compounds. Each compound was dissolved in a 15% aqueous solution of dimethyl sulfoxide (hereinafter the solution will be referred to as an “eye drop base”), to thereby obtain a test solution. The amounts of 2-(1-octynyl)adenosine and 2-(3-hydroxy-1-propynyl)adenosine were 0.03% (W/V) and 0.1% (W/V), respectively. The amount of CGS-21680 in the resultant solution was 0.1% (w/v). The eye drop base was employed as a control.
New Zealand white male rabbits (Tokyo Jikken Dobutsu) (weight: 2.2-3.1 kg) were employed in the test. […]
The ocular tension of each rabbit was measured by use of an applanation pneumatonometer (Alcon, PTG) without anesthesia. Before the ocular tension was measured, 0.4% oxybuprocaine hydrochloride (Benoxil 0.4% eye drop, product of Santen Pharmaceutical Co., Ltd.) was instilled to the eyes of each rabbit, to thereby anesthetize the surface of the cornea. Before administration of drugs, the ocular tension of each rabbit was measured several times at 15-minute intervals until the ocular tension became stable. After the ocular tension became stable, the ocular tension was measured three times, and the average value was employed as the normal ocular tension. […]

[3] = Test Example 3: single oral dose toxicity in rats; settings: both sexes, SD, in vivo, rat, observed for two weeks, maximum dose
Description: To six-week-old male and female SD rats (six for each group), 2-(1-octynyl)adenosine was administered orally at a single dose of 521, 729, 1020, 1429, or 2000 mg/kg.

[4] = Test Example 3: single oral dose toxicity in dogs; settings: both sexes, beagle, in vivo, dog, observed for two weeks, maximum dose
Description: To nine-month-old male and female beagle dogs (two for each group), 2-(1-octynyl)adenosine was administered orally at a single dose of 50, 150, or 450 mg/kg.

[5] = eye drop base A (saline with polysorbate 80)
[6] = eye drop base B (boric acid buffer pH 7.0 with polysorbate 80)

Row | Compound | AUC [1, 5] [mmHg.min] | Emax [1, 5] [mmHg] | AUC [1, 6] [mmHg.min] | Emax [1, 6] [mmHg] | other results
1 | CCNC(=O)[C@H]1O[C@@H](n2cnc3c(N)nc(NCCc4ccc(CCC(=O)O)cc4)nc32)[C@H](O)[C@@H]1O [CGS-21680, 2-((4-(2-carboxyethyl)phenylethyl)amino)adenosine-5′-N-ethyluronamide, reference compound] | −508.1 | −2.5 | – | – | –
2 | CCCCC#Cc1nc(N)c2ncn([C@@H]3O[C@H](CO)[C@@H](O)[C@H]3O)c2n1 [Compound 1, 2-(1-hexynyl)adenosine] | – | – | −1236.0 | −4.6 | –
3 | CCCCCCC#Cc1nc(N)c2ncn([C@@H]3O[C@H](CO)[C@@H](O)[C@H]3O)c2n1 [Compound 2, 2-(1-octynyl)adenosine] | −1093.5 | −4.2 | – | – | effect of lowering ocular tension (ΔIOP) [2]: excellent effect of lowering ocular tension, as compared with CGS-21680; LD50 at 2 weeks [3]: ≥ 2000 mg/kg; LD50 at 2 weeks [4]: ≥ 450 mg/kg
4 | Nc1nc(C#CCCCCN2C(=O)c3ccccc3C2=O)nc2c1ncn2[C@@H]1O[C@H](CO)[C@@H](O)[C@H]1O [Compound 3, 2-(6-phthalimidyl-1-hexynyl)adenosine] | −1471.0 | −6.3 | – | – | –
5 | Nc1nc(C#CCO)nc2c1ncn2[C@@H]1O[C@H](CO)[C@@H](O)[C@H]1O [Compound 4, 2-(3-hydroxy-1-propynyl)adenosine] | −955.6 | −4.3 | – | – | effect of lowering ocular tension (ΔIOP) [2]: excellent effect of lowering ocular tension, as compared with CGS-21680
6 | Nc1nc(C#CC(O)c2ccccc2)nc2c1ncn2[C@@H]1O[C@H](CO)[C@@H](O)[C@H]1O (stereo partly drawn) [Compound 5, 2-(3-hydroxy-3-phenyl-1-propynyl)adenosine] | −1185.6 | −4.8 | – | – | –
7 | CCOCC#Cc1nc(N)c2ncn([C@@H]3O[C@H](CO)[C@@H](O)[C@H]3O)c2n1 [Compound 6, 2-(3-ethoxy-1-propynyl)adenosine] | −1538.3 | −5.3 | – | – | melting point: 120 to 127 °C
8 | CCCOCCC#Cc1nc(N)c2ncn([C@@H]3O[C@H](CO)[C@@H](O)[C@H]3O)c2n1 [Compound 7, 2-(4-propoxy-1-butynyl)adenosine] | – | – | −1828.5 | −4.9 | –
9 | CCCCCCCCOCCC#Cc1nc(N)c2ncn([C@@H]3O[C@H](CO)[C@@H](O)[C@H]3O)c2n1 [Compound 8, 2-(4-octoxy-1-butynyl)adenosine] | – | – | −1683.0 | −5.4 | –
10 | CCOCCCC#Cc1nc(N)c2ncn([C@@H]3O[C@H](CO)[C@@H](O)[C@H]3O)c2n1 [Compound 9, 2-(5-ethoxy-1-pentynyl)adenosine] | – | – | −1117.5 | −3.7 | –
11 | Nc1nc(C#CCOC2CCCCC2)nc2c1ncn2[C@@H]1O[C@H](CO)[C@@H](O)[C@H]1O [Compound 10, 2-(3-cyclohexyloxy-1-propynyl)adenosine] | −945.9 | −4.3 | – | – | –
12 | Nc1nc(C#CC2CCCC2)nc2c1ncn2[C@@H]1O[C@H](CO)[C@@H](O)[C@H]1O [Compound 11, 2-(2-cyclopentyl-1-ethynyl)adenosine] | – | – | −1532.7 | −4.4 | –
13 | Nc1nc(C#CC2CCCCC2)nc2c1ncn2[C@@H]1O[C@H](CO)[C@@H](O)[C@H]1O [Compound 12, 2-(2-cyclohexyl-1-ethynyl)adenosine] | – | – | −1670.2 | −6.0 | –
14 | Nc1nc(C#CCC2CCCC2)nc2c1ncn2[C@@H]1O[C@H](CO)[C@@H](O)[C@H]1O [Compound 13, 2-(3-cyclopentyl-1-propynyl)adenosine] | – | – | −1053.9 | −5.9 | –
15 | Nc1nc(C#CCC2CCCCC2)nc2c1ncn2[C@@H]1O[C@H](CO)[C@@H](O)[C@H]1O [Compound 14, 2-(3-cyclohexyl-1-propynyl)adenosine] | – | – | −1053.2 | −4.0 | –
16 | Nc1nc(C#CCCC2CCCC2)nc2c1ncn2[C@@H]1O[C@H](CO)[C@@H](O)[C@H]1O [Compound 15, 2-(4-cyclopentyl-1-butynyl)adenosine] | – | – | −1086.0 | −5.6 | –
17 | CCCCC#Cc1nc(N)c2ncn([C@@H]3O[C@H](C(=O)NC)[C@@H](O)[C@H]3O)c2n1 [Compound 16, 2-(1-hexynyl)adenosine-4′-methylcarboxamide] | −1838.3 | −6.0 | – | – | –
